Among the data in patent US8846704B2, “Thiopyrimidine-based compounds and uses thereof” (YM Biosciences Austraila Pty Ltd, priority 2007, dated 2014) are inhibition, IC50 and GI50 values, retold here.

The target of test [1] is T1, BTK(h) (Homo sapiens, UniProt Q06187).
T1 construct: purchased Upstate Biotechnology (Dundee, UK), KinaseProfiler service
In words: Upstate KinaseProfiler enzyme assay, BTK. It counts as biochemical. The settings on record: 500 nM compound; read-out: Percent inhibition at 500 nM BTK(h). On the procedure: (§1) Further enzyme assays were conducted at Upstate Biotechnology (Dundee, UK) in the KinaseProfiler™ Assay system.
(§2) The general protocol is as follows. All kinases are pre-diluted to a 10× working concentration prior to addition into the assay. The composition of the dilution buffer for the kinases is 20 mM MOPS pH 7.0, 1 mM EDTA, 0.1% β-mercaptoethanol, 0.01% Brij-35, 5% glycerol, 1 mg/ml BSA. All substrates are dissolved and diluted to working stocks in de-ionised water.

Test [2] has as its target T2, KDR(h) (Homo sapiens, UniProt P35968).
T2 construct: purchased Upstate Biotechnology (Dundee, UK), KinaseProfiler service
In words: Upstate KinaseProfiler enzyme assay, KDR. The settings on record: 500 nM compound; read-out: Percent inhibition at 500 nM KDR(h). It counts as biochemical. Here is the method:
as §1, §2

Test [3] has as its target T3, Bmx(h) (Homo sapiens, UniProt P51813).
T3 construct: purchased Upstate Biotechnology (Dundee, UK), KinaseProfiler service
T3 sequence (P51813 1-675): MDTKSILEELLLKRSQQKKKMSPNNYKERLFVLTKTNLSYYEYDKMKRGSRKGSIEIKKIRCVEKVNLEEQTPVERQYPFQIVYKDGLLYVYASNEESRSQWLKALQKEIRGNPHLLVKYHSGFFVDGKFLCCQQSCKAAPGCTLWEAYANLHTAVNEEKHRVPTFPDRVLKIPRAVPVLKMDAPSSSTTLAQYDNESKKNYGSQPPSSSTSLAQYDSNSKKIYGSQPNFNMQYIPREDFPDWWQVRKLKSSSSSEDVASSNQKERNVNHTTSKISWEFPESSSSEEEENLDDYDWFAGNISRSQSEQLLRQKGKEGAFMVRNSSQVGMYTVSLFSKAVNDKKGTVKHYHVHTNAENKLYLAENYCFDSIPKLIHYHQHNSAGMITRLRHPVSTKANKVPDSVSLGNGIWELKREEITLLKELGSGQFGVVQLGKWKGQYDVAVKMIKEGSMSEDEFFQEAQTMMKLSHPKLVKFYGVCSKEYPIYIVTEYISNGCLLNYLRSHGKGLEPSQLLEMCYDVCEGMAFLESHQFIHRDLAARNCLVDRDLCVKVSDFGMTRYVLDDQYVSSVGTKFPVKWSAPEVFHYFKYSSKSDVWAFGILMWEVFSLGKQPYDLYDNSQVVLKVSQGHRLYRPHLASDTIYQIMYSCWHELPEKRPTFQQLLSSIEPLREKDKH
In words: Upstate KinaseProfiler enzyme assay, Bmx. It is filed as biochemical. The conditions noted are these: 500 nM compound; read-out: Percent inhibition at 500 nM Bmx(h). Here is the method: as §1, §2

Test [4] has as its target T4, Blk(m) (Mus musculus, UniProt P16277).
T4 construct: purchased Upstate Biotechnology (Dundee, UK), KinaseProfiler service
The test is described as follows: Upstate KinaseProfiler enzyme assay, Blk. It is filed as biochemical. The conditions noted are these: 500 nM compound; read-out: Percent inhibition at 500 nM Blk(m). On the procedure: as §1, §2

Test [5] concerns the target T5, human JAK3 (Homo sapiens, UniProt P52333).
T5 construct: The kinase domain of human JAK3 was amplified; GST (N); made in house; host or cells: Sf9 insect cells (baculovirus)
The test is described as follows: Alphascreen tyrosine kinase enzyme assay, JAK3 kinase domain. It counts as biochemical. The settings on record: read-out: JAK3 IC50_nM. Here is the method:
(§3) For screening purposes, compounds (in 100% DMSO) were warmed at 37 degrees for at least 20 minutes before use. A […] stock was initially made in assay buffer, where the final concentration of DMSO was 0.3%. The stocks were then diluted in 384 well Optiplates (Packard) where the final concentration of the compound was […].
The kinase domain of human JAK3 was amplified from U937mRNA using the polymerase chain reaction with the following primers: […]
The JAK3 PCR products were cloned into the pDest20 destination expression vector (Gibco). The JAK3 plasmid was then transformed into competent DH10Bac cells (Gibco), and the recombinant baculovirus was prepared via Sf9 insect cell transfection.
(§4) Baculovirus preparations from each of the constructs were infected into either one or five liters of Sf9 cells (Invitrogen) grown in SF-900 medium (Invitrogen) to a cell density of approximately 1-2×10^6 cells/ml. Cells were infected with virus at a MOI of 0.8-3.0. Cells were harvested and lysed. Tyrosine kinase domains were purified by affinity chromatography on a glutathione-agarose column (Scientifix Pty. Ltd. catalog #: GSH-200).
(§5) Kinase assays were performed in 384 well Optiplates (Packard) using an Alphascreen Protein Tyrosine Kinase PY100 detection kit The compounds were pre-incubated with affinity purified PTK domain in the presence of phosphotyrosine assay buffer (10 mM HEPES, pH 7.5, 100 mM MgCl2, 25 mM NaCl, […] and 0.1% Tween 20) for 20 minutes. The compounds were then incubated with substrate in the presence of ATP. The substrate used was susbtrate-1 with the sequence biotin-EGPWLEEEEEAYGWMDF-NH2 [SEQ. ID. NO. 13] (final concentration […]). For HCK 80 μm ATP was used and incubated for 60 minutes. Alphascreen phosphotyrosine acceptor beads followed by streptavidin donor beads at a concentration of 1/100 in stop buffer were added to each well under subdued light and incubated for 2-3 hours., The Alphascreen plates were read on a Packard Fusion Alpha instrument.
In general terms: In Alpha technology, singlet oxygen from a donor bead excites a nearby acceptor bead.

In test [6] the target is T6, human JAK2 (Homo sapiens, UniProt O60674).
T6 construct: The kinase domain of human JAK2 was amplified; GST (N); made in house; host or cells: Sf9 insect cells (baculovirus)
T6 sequence (O60674 849-1124 limits assumed): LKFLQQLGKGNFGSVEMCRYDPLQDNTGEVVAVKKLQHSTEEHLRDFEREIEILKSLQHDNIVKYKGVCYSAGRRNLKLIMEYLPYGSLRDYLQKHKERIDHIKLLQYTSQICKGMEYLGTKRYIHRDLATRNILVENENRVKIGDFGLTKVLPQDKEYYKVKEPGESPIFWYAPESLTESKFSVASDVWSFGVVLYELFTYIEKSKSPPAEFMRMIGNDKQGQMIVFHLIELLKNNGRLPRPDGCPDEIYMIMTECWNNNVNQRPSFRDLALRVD
The test is described as follows: Alphascreen tyrosine kinase enzyme assay, JAK2 kinase domain. It counts as biochemical. The settings on record: read-out: JAK2 IC50_nM. On the procedure:
as §3
The kinase domain of human JAK2 was amplified from U937mRNA using the polymerase chain reaction with the following primers: […]
The JAK2 PCR products were cloned into the pDest20 destination vector (Gibco). The JAK2 plasmid was then transformed into competent DH10Bac cells (Gibco), and the recombinant baculovirus was prepared via Sf9 insect cell transfection.
as §4, §5

For test [7], the target named is T7, human JAK1 (Homo sapiens, UniProt P23458).
T7 construct: The kinase domain of human JAK1 was amplified; GST (N); made in house; host or cells: Sf9 insect cells (baculovirus)
T7 sequence (P23458 875-1153 limits assumed): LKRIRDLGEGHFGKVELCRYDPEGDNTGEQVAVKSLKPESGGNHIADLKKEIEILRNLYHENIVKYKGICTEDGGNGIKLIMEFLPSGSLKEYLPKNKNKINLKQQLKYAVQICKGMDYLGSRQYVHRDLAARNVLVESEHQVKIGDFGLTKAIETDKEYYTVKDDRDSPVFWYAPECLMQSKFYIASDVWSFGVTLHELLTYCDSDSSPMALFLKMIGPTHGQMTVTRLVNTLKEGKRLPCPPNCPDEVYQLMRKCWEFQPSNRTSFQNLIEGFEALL
The test is described as follows: Alphascreen tyrosine kinase enzyme assay, JAK1 kinase domain. It is filed as biochemical. The settings on record: read-out: JAK1 IC50_nM. On the procedure: as §3
The kinase domain of human JAK1 was amplified from U937mRNA using the polymerase chain reaction with the following primers: […]
The JAK1 PCR products were cloned into the pDest20 destination vector (Gibco). The JAK1 plasmid was then transformed into competent DH10Bac cells (Gibco), and the recombinant baculovirus was prepared via Sf9 insect cell transfection.
as §4, §5

Test [8] concerns CTLL2. The test is described as follows: Cellular screening, CTLL2 cells, Alamar Blue. It counts as cell-based. The settings on record: Mus musculus, CTLL-2, read-out: CTLL2 IC50_nM. Here is the method:
(§6) Cell suspensions were prepared by harvesting cells from culture (the cells used in this test were in late log phase growth with high viability.) Cells were diluted in the appropriate growth medium, as described above, to 1.1× final concentration (from 50,000 cell/mL to 200,000 cell/mL, depending on cell line).
(§7) Compounds to be tested were added (10 μL, 10× final concentration) to a flat bottomed 96-well plate. The cellular suspension (90 μL per well) was then added, and the plate incubated for 40 hr at 37° C., 5% CO2. Alamar Blue 10 μL per well was added and the plates returned to the incubator for a further 4-6 hours. The plates were then read at 544 nm.

The target of test [9] is T8, BaF3 TELJAK2 cells (BafT_J2) (Homo sapiens, UniProt O60674).
T8 construct: fused on or other part: TEL (ETV6) N-terminal part, coding nucleotides 1-487, serves as the oligomerising partner; It is fused through a Sal I site to the JAK2 kinase domain and expressed from pTRE2 in BaF3 cells bearing pTET-off; P41212 (Transcription factor ETV6)
T8 sequence (O60674 whole entry, change not shown, the tested form may be a part): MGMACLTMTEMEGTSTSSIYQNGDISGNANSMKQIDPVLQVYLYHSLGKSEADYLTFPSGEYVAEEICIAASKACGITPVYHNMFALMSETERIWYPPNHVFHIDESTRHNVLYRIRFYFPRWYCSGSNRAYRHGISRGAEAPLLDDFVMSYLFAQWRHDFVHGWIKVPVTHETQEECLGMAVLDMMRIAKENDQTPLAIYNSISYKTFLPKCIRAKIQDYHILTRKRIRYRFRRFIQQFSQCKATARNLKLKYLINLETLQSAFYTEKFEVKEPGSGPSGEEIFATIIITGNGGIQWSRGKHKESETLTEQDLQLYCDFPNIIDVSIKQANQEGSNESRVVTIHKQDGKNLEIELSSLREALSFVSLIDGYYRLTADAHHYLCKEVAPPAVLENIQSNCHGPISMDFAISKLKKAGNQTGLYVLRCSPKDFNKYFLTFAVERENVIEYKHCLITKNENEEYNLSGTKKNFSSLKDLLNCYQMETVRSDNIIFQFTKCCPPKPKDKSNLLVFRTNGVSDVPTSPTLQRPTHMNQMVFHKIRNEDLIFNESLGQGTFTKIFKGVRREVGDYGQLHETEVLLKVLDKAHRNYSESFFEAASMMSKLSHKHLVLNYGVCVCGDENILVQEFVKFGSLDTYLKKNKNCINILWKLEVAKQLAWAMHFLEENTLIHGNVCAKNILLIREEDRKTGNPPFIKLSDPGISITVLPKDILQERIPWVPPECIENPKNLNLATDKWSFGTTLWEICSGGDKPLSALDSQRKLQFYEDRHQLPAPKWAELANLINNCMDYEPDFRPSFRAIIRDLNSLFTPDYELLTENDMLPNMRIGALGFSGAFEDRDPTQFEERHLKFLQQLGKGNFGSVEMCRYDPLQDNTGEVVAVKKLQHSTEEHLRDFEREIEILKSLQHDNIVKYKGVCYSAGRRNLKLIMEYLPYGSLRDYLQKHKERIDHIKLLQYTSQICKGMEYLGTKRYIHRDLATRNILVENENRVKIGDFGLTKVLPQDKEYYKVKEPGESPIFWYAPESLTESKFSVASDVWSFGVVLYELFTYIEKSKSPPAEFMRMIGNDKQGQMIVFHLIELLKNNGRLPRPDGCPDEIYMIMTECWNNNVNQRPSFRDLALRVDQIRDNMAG
The test is described as follows: Cellular screening, BaF3 TEL:JAK2 cells, Alamar Blue. It counts as cell-based. The conditions noted are these: 40 hr, read-out: BafT_J2 IC50_nM. On the procedure: (§8) For screening purposes, compounds were diluted in 96 well plates at a concentration of 20 μM. Plates were warmed at 37° C. for 30 minutes before the assay was performed.
The coding region encompassing nucleotides 1-487 of TEL was amplified by PCR using the oligonucleotides STEL (5′-GGAGGATCCTGATCTCTCTCGCTGTGAGAC-3′) [SEQ ID NO 14] and 3TEL (5′-AGGC GTCGACTTCTTCTTCATGGTTCTG-3′) [SEQ ID NO 15] and U937 mRNA as a template. A […] restriction site was incorporated into the STEL primer, and a Sal I restriction site was incorporated into the 3TEL primer. The regions encompassing the kinase domain of JAK2 (nucleotides 2994-3914; JAK2F 5′-ACGC GTCGACGGTGCCTTTGAAGACCGGGAT-3′ [SEQ ID NO 16]; JAK2R 5′-ATAGTTTAGCGGCCGCTCAGAATGAAGGTCATTT-3′) [SEQ ID NO 17] and JAK3 (nucleotides 2520-3469; JAK3F 5′-GAAGTCGACTATGCCTGCCAAGACCCCACGATCTT-3′) [SEQ ID NO 18] were generated by PCR using Taq DNA polymerase (Gibco/BRL) and […] as a template. A Sal I restriction site was incorporated into the forward primer of JAK2 and JAK3, a Not I site was incorporated into the JAK2 reverse primer and a Xba I site was added to the reverse primer of JAK3.
A TEL/Jak2 fusion was generated by digestion of the TELPCR product with BamH I/Sal I restriction enzymes, digestion of the JAK2 PCR product with Sal I/Not I restriction enzymes, followed by ligation and subcloning of the ligation product into the mammalian expression Vector pTRE 2 (Clontech), which was prepared by digestion with BamH I-Not I restriction enzymes, to give the TEL/Jak2 fusion plasmid pTELJAK2.
(§9) The growth factor dependant myelomonocytic cell line BaF3 bearing the pTET-off plasmid (Clontech) was transfected with either pTELJAK2 or pTELJAK3, and the transfected cells were selected for growth-factor independent cell growth. The BaF3 wild-type cells were cultured in DMEM containing 10% FCS, 10% WEHI 3B conditioned medium. The BaF3 TELJAK cells ([…]) were cultured in DMEM 10% Tet-System Approved FBS (without WEHI 3B conditioned medium).
as §6, §7
(Alamar Blue is a resazurin reagent that responds to reducing activity.)

Test [10] has as its system BaF3 wild-type cells. In words: Cellular screening, BaF3 wild-type cells, Alamar Blue. It is filed as cell-based. The settings on record: Mus musculus, 40 hr, read-out: BAF3wt IC50_nM. On the procedure: as §8, §9, §6, §7

SMILES strings stand for the structures.

T5 sequence (P52333 822-1111 limits assumed): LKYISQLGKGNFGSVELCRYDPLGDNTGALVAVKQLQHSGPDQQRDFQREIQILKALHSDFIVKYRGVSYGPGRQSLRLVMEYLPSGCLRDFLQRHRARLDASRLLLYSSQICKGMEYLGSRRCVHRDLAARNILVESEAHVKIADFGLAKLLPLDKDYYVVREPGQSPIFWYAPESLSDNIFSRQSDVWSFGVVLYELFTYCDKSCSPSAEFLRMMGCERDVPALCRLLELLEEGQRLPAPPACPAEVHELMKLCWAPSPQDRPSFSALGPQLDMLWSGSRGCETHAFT
T1 sequence (Q06187 whole entry): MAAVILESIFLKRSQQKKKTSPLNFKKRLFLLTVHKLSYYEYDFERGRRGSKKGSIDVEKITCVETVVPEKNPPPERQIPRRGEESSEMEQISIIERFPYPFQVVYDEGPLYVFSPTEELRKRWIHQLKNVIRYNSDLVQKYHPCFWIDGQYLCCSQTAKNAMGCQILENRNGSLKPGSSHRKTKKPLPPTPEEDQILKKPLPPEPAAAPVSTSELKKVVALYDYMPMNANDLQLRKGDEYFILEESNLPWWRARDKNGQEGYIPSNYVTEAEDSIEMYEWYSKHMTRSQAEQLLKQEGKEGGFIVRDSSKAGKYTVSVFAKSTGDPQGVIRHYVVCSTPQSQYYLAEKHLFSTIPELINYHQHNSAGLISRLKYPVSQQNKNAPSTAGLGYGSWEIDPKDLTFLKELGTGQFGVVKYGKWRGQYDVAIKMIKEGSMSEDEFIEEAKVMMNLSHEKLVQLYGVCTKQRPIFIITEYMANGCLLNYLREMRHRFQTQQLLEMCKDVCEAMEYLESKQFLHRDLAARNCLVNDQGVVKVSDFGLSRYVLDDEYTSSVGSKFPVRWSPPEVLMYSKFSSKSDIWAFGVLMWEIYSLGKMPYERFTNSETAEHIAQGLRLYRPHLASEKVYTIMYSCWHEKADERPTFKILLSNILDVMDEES
T2 sequence (P35968 20-1356): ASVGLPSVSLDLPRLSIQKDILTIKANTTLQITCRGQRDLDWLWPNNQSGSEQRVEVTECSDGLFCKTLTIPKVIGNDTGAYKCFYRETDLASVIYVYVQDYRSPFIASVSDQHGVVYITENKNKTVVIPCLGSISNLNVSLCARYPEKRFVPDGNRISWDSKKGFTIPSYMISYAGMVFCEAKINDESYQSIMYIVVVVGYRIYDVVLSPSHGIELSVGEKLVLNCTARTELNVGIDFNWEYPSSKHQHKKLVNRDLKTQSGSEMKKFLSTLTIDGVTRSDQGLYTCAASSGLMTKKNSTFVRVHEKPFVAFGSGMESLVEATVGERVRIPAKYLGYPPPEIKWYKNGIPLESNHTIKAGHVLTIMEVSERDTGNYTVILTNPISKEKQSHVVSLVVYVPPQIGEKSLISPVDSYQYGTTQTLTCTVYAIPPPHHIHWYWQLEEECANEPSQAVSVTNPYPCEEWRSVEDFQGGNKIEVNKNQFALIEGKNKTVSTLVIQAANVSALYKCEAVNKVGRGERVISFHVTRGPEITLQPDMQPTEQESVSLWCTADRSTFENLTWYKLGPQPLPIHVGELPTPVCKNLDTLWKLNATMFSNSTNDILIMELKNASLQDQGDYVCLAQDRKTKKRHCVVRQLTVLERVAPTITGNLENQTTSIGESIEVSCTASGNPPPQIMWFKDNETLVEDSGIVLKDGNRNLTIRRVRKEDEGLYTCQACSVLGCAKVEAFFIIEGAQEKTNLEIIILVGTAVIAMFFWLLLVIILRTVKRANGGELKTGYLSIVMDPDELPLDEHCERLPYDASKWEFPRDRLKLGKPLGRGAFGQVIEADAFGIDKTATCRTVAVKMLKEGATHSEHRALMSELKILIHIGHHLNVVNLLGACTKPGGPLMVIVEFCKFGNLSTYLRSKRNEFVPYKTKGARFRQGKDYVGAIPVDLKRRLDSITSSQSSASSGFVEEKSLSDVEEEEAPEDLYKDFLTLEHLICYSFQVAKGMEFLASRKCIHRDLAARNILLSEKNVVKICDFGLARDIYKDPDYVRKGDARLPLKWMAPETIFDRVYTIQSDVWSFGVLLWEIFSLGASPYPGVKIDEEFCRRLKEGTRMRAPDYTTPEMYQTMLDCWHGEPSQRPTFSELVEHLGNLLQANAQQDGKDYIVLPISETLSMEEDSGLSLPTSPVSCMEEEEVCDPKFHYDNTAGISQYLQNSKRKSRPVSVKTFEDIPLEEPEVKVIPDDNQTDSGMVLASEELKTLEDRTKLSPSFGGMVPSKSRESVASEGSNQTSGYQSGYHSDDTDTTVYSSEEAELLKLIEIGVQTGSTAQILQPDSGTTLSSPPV
T4 sequence (P16277 whole entry): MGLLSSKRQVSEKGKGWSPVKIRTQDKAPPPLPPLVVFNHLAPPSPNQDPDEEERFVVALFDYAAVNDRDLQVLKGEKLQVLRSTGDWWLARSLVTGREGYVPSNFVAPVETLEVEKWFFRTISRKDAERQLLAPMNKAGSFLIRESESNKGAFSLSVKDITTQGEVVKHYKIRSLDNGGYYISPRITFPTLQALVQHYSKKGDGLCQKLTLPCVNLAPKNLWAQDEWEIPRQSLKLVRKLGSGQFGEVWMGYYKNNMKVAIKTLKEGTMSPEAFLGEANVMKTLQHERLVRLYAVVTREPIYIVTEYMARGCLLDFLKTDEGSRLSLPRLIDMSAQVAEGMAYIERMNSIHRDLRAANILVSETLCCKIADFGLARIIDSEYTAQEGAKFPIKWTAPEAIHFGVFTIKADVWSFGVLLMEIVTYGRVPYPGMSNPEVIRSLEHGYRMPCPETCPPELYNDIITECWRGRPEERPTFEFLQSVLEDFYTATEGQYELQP

Broadly, the inhibition is the change of the read-out against control, counted positive when it falls. Turning to `C=CC(=O)Nc1ccc(Sc2ccnc(Nc3cc(OC)c(OC)c(OC)c3)n2)cc1` [Compound 71, N-(4-(2-(3,4,5-trimethoxyphenylao)pyrimidin-4-ylthio)phenyl)acrylamide], the inhibition at 0.5 µM in [1] was 27%; in test [2] it was 90%; in test [3], 36%; in test [4], 49%.

For `C=CC(=O)Nc1ccc(Sc2ccnc(Nc3cccc(S(=O)(=O)NCCC(C)C)c3)n2)cc1` [Compound 363, N-(4-(2-(3-(N-isopentylsulfamoyl)phenylao)pyrimidin-4-ylthio)phenyl)acrylamide], the IC50 is less than 100 nM in [5] and greater than 1000 nM in test [6].

As to `C/C=C/C(=O)Nc1ccc(Sc2ccnc(Nc3ccc(N4CCOCC4)cc3)n2)cc1` [Compound 59, (E)-N-(4-(2-(4-morpholinophenylao)pyrimidin-4-ylthio)phenyl)but-2-enamide], the inhibition at 0.5 µM in [1], in [2], in test [3] and in [4] was 100% throughout.

Take `C=CC(=O)Nc1cccc(Nc2nccc(Sc3ncccn3)n2)c1` [Compound 3, N-(3-(4-(pyrimidin-2-ylthio)pyrimidin-2-ylao)phenyl)acrylamide]: the IC50 in test [7] was greater than 1000 nM; in [5], less than 100 nM; in test [8], less than 5000 nM; in [6], greater than 1000 nM.

In the case of `CC#CC(=O)Nc1cccc(Sc2ccnc(Nc3ccc(N4CCOCC4)cc3)n2)c1` [Compound 331, N-(3-(2-(4-morpholinophenylao)pyrimidin-4-ylthio)phenyl)but-2-ynamide], the IC50 in test [5] is less than 500 nM; in [6] it was greater than 1000 nM.

As to `Cc1cnc(Nc2ccc(N3CCOCC3)cc2)nc1Sc1ccc(N)c(C)c1Cl` [Compound 169, 4-(4-ao-2-chloro-3-methylphenylthio)-5-methyl-N-(4-morpholinophenyl)pyrimidin-2-ae], the IC50 was greater than 1000 nM in test [7], less than 100 nM in test [5] and greater than 1000 nM in test [6].

Take `C=CC(=O)Nc1ccc(Sc2nc(Nc3ccc(N4CCOCC4)cc3)ncc2C)c(Cl)c1` [Compound 252, N-(3-chloro-4-(5-methyl-2-(4-morpholinophenylao)pyrimidin-4-ylthio)phenyl)acrylamide]: the GI50 in test [9] was greater than 20 µM. Moreover, the IC50 in [10] was greater than 20 µM; in [5], less than 100 nM; in test [8], less than 1000 nM; in test [6], greater than 1000 nM.

With `Cc1cnc(Nc2ccc(N3CCOCC3)cc2)nc1Sc1ccc(Cn2cnc(C#N)c2C#N)cc1` [Compound 221, 1-(4-(5-methyl-2-(4-morpholinophenylao)pyrimidin-4-ylthio)benzyl)-1H-imidazole-4,5-dicarbonitrile], the IC50 in test [10] is less than 1 µM; in test [5], less than 500 nM; in test [8], less than 1000 nM; in [6], greater than 1000 nM.

Regarding `N#CCc1cn(Cc2ccc(Sc3ccnc(Nc4ccc(N5CCOCC5)cc4)n3)cc2)cn1` [Compound 90, 2-(1-(4-(2-(4-Morpholinophenylamino)pyrimidin-4-ylthio)benzyl)-1H-imidazol-4-yl)acetonitrile], in [9], the GI50 is less than 5 µM. Besides, the IC50 in [10] is less than 20 µM; in test [5], less than 500 nM; in [8], less than 5000 nM; in [6] it was greater than 1000 nM.
